This note sets out measurements from ChEMBL document CHEMBL1201862, “PubChem BioAssay data set” (2004).

Structures are written as SMILES.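 Results reflect a 48-hour exposure of cells in 96-well plates to compound at five concentrations. GI50 is the concentration that inhibits growth by half.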 Calls of active or inactive are those of the source. No stated cut-off is given here; in the data, active = GI50 up to about 1.1 µM and inactive = higher.

Test systems include 786-0; A498; COLO 205; K562; LOX IMVI; NCI-H226; NCI-H460; OVCAR-3; OVCAR-8; RPMI-8226; RXF 393; SNB-19; SNB-75; SW-620; TK-10; U-251; SK-OV-3; UACC-62; HOP-62.
Assay in all cases: NCI-60 cell line screen, 48 h

On to `CCC(=O)OC[n+]1ccc2c(C)c3[nH]c4ccccc4c3c(C)c2c1`, for which the GI50 in the experiment on 786-0 was 0.767 µM (active); in the experiment with A498 it was 1.21 µM (inactive); in the experiment on COLO 205, 0.323 µM (active); with K562, 0.618 µM (active); in the experiment on LOX IMVI it was 0.337 µM (active); with NCI-H226, 0.735 µM (active). Moreover, the GI50 in the experiment with NCI-H460 was 0.033 µM (active); with OVCAR-3, 1.33 µM (inactive); in the experiment on OVCAR-8 it was 0.454 µM (active); in the experiment on RPMI-8226, 0.284 µM (active); in the experiment with RXF 393, 0.552 µM (active); with SNB-19, 1.6 µM (inactive). The GI50 is 1.29 µM (inactive) in the experiment on SNB-75, 0.173 µM (active) in the experiment with SW-620, 1.36 µM (inactive) with TK-10 and 0.397 µM (active) with U-251.
`COc1cc(/C=C\c2ccc(O)cc2)cc(OC)c1OC`: the GI50 in the experiment with 786-0 is 8.59 µM (inactive); with A498, 29.4 µM (inactive); with COLO 205, 5.57 µM (inactive); with LOX IMVI, 5.19 µM (inactive); with NCI-H226 it was 22.3 µM (inactive); in the experiment with NCI-H460 it was 3.33 µM (inactive). For the same compound, the GI50 in the experiment on OVCAR-3 was 2.32 µM (inactive); in the experiment with OVCAR-8, 6.95 µM (inactive); with RPMI-8226 it was 0.402 µM (active); in the experiment on RXF 393, 3.78 µM (inactive); in the experiment with SK-OV-3, 3.88 µM (inactive); in the experiment on SNB-19, 2.56 µM (inactive). Further, the GI50 was 3.94 µM (inactive) in the experiment on SNB-75; 2.65 µM (inactive) in the experiment with SW-620; 18.2 µM (inactive) in the experiment on TK-10; 3.01 µM (inactive) in the experiment on U-251; 3.37 µM (inactive) with UACC-62.
As for `CC[C@@]12N=C(N(C)C)C[C@]1(O)ON=C2C`, the GI50 in the experiment on 786-0, with A498, in the experiment with COLO 205, with K562, with NCI-H226 and in the experiment with NCI-H460 was > 100 µM (inactive) throughout. Moreover, the GI50 in the experiment with OVCAR-3, in the experiment on OVCAR-8, with RPMI-8226, in the experiment on RXF 393, with SK-OV-3 and in the experiment on SNB-19 was > 100 µM (inactive) in each case. Further, the GI50 in the experiment with SNB-75, with SW-620, in the experiment with TK-10 and with U-251 was > 100 µM (inactive) in each case.
Take `CC12CCC(CC1)C(C)(C)O2` [EUCALYPTOL]: the GI50 in the experiment on 786-0 was > 100 µM (inactive); in the experiment with A498, 0.923 µM (active); in the experiment on COLO 205, 18.6 µM (inactive); with HOP-62, 12.6 µM (inactive); with LOX IMVI, 7.43 µM (inactive); in the experiment on OVCAR-3, 36.1 µM (inactive). For the same compound, the GI50 in the experiment with OVCAR-8 was 24.4 µM (inactive); with RPMI-8226, 23.4 µM (inactive); in the experiment with RXF 393 it was 13.6 µM (inactive); with SK-OV-3 it was 57.5 µM (inactive); in the experiment on SNB-75, 39.3 µM (inactive); with TK-10, > 100 µM (inactive). Also, the GI50 with U-251 is 29.5 µM (inactive); with UACC-62, 10 µM (inactive).
As for `CN(C)CCOc1cccc2c1C(=O)c1ccccc1C2=O`, the GI50 in the experiment on 786-0 was 17.6 µM (inactive); in the experiment on A498 it was 18.1 µM (inactive); in the experiment with COLO 205, 4.38 µM (inactive); in the experiment with HOP-62, 13.6 µM (inactive); in the experiment with K562 it was 11.1 µM (inactive); in the experiment on LOX IMVI, 5.75 µM (inactive). Also, the GI50 with NCI-H226 was 9.95 µM (inactive); in the experiment on NCI-H460 it was 5.36 µM (inactive); in the experiment on OVCAR-3, 17.9 µM (inactive); with OVCAR-8 it was 9.48 µM (inactive); in the experiment on RXF 393 it was 13.8 µM (inactive); in the experiment on SK-OV-3, 20.4 µM (inactive). In addition, the GI50 is 18.2 µM (inactive) in the experiment on SNB-19; 14.9 µM (inactive) in the experiment on SNB-75; 8.32 µM (inactive) in the experiment with SW-620; 17.3 µM (inactive) in the experiment on TK-10; 17.4 µM (inactive) in the experiment on U-251; 16.3 µM (inactive) in the experiment with UACC-62.
As to `O=C(/C=C1\Nc2ccccc2C(=O)N1c1ccc(Cl)cc1)c1ccncc1`, the GI50 in the experiment on 786-0 is 71.6 µM (inactive); in the experiment with A498 it was 75.7 µM (inactive); with COLO 205 it was > 100 µM (inactive); in the experiment on HOP-62 it was > 100 µM (inactive); with K562, > 100 µM (inactive); in the experiment with NCI-H226, > 100 µM (inactive). In addition, the GI50 in the experiment on NCI-H460, with OVCAR-3, in the experiment with OVCAR-8, with RPMI-8226, in the experiment on SK-OV-3 and in the experiment with SNB-19 was > 100 µM (inactive) in each case. In addition, the GI50 was 20.7 µM (inactive) with SNB-75; > 100 µM (inactive) in the experiment with SW-620; > 100 µM (inactive) with TK-10; > 100 µM (inactive) in the experiment on U-251; > 100 µM (inactive) in the experiment with UACC-62.
As for `CCN/C(=N\Nc1ccc([N+](=O)[O-])cc1)P(=O)(OC(C)C)OC(C)C`, the GI50 is > 100 µM (inactive) with 786-0; > 100 µM (inactive) with A498; > 100 µM (inactive) in the experiment on COLO 205; 95.9 µM (inactive) with HOP-62; > 100 µM (inactive) in the experiment on K562; > 100 µM (inactive) in the experiment with LOX IMVI. In addition, the GI50 was 25.8 µM (inactive) with NCI-H226; > 100 µM (inactive) in the experiment with NCI-H460; > 100 µM (inactive) in the experiment on OVCAR-3; > 100 µM (inactive) in the experiment on OVCAR-8; > 100 µM (inactive) in the experiment with RPMI-8226; > 100 µM (inactive) in the experiment with SNB-19. Moreover, the GI50 is 49.9 µM (inactive) in the experiment on SNB-75; > 100 µM (inactive) in the experiment with SW-620; > 100 µM (inactive) in the experiment on TK-10; > 100 µM (inactive) in the experiment on U-251; 64 µM (inactive) with UACC-62.
Consider `O=C1C2C=CC(C2)C(c2ccc(O)cc2)N1O` (centres undefined), for which the GI50 in the experiment on 786-0, in the experiment with A498, in the experiment on COLO 205, in the experiment with HOP-62, in the experiment on K562 and in the experiment with NCI-H226 was > 100 µM (inactive) throughout. Also, the GI50 with NCI-H460, with OVCAR-3, in the experiment on OVCAR-8, in the experiment on RPMI-8226, in the experiment with SK-OV-3 and with SNB-19 was > 100 µM (inactive) each time. Also, the GI50 in the experiment with SNB-75, in the experiment with SW-620, with TK-10, with U-251 and in the experiment on UACC-62 was > 100 µM (inactive) in each case.
For `O=C(c1ccccc1)C1CCCCN1C(=O)c1ccccc1` (centres undefined), the GI50 in the experiment on 786-0, in the experiment on A498, with COLO 205, with HOP-62, in the experiment on K562 and with NCI-H226 was > 100 µM (inactive) throughout. Moreover, the GI50 in the experiment with NCI-H460, in the experiment with OVCAR-3, in the experiment on OVCAR-8, with RPMI-8226, in the experiment with RXF 393 and with SK-OV-3 was > 100 µM (inactive) each time. The GI50 in the experiment on SNB-19 is > 100 µM (inactive); with SNB-75, > 100 µM (inactive); with SW-620 it was > 100 µM (inactive); in the experiment on TK-10, > 100 µM (inactive); in the experiment with U-251, > 100 µM (inactive); in the experiment with UACC-62, 25.7 µM (inactive).
For `Cc1nc2ccccc2c(=O)n1/N=C(\N=N\c1ccccc1Cl)c1ccccc1`, the GI50 with 786-0 was 19 µM (inactive); in the experiment on A498, 27.5 µM (inactive); with COLO 205, 21.5 µM (inactive); in the experiment with HOP-62, 19.1 µM (inactive); in the experiment with LOX IMVI it was 24.8 µM (inactive); in the experiment with NCI-H460 it was 23.9 µM (inactive). Further, the GI50 is 31.3 µM (inactive) with OVCAR-8; 17 µM (inactive) in the experiment with RPMI-8226; 23 µM (inactive) in the experiment on RXF 393; 31 µM (inactive) with SK-OV-3; 74.1 µM (inactive) in the experiment with SNB-19; 22.7 µM (inactive) in the experiment with SW-620. Further, the GI50 in the experiment with TK-10 is 60.5 µM (inactive); with U-251, 26.7 µM (inactive); with UACC-62, 17.5 µM (inactive).
As to `COC(=O)[C@@]12C3=NO[C@]1(C(=O)OC)C(O[Si](C)(C)C(C)(C)C)[C@H]1OC(C)(C)O[C@H]1[C@@H]2C(OCc1ccccc1)CC3` (some centres undefined), the GI50 is 70.5 µM (inactive) in the experiment on 786-0; 38.3 µM (inactive) in the experiment with A498; 57.1 µM (inactive) in the experiment with COLO 205; > 100 µM (inactive) with K562; 69 µM (inactive) in the experiment on LOX IMVI; 88.7 µM (inactive) in the experiment on NCI-H226. In addition, the GI50 with NCI-H460 was 6.21 µM (inactive); in the experiment on OVCAR-3 it was 46.5 µM (inactive); in the experiment on OVCAR-8 it was 92.5 µM (inactive); with RPMI-8226, > 100 µM (inactive); with SK-OV-3 it was 25.6 µM (inactive); with SNB-19, 25.8 µM (inactive). Also, the GI50 is 17.9 µM (inactive) with SNB-75; > 100 µM (inactive) in the experiment on SW-620; 84.1 µM (inactive) with TK-10; 43.5 µM (inactive) with U-251; 41.7 µM (inactive) in the experiment on UACC-62.
`CC1(C)C2CCC1(C)C(N/C(=C(/C(Cl)=C(Cl)Cl)[N+](=O)[O-])n1nnc3ccccc31)C2` (centres undefined): the GI50 is 41.1 µM (inactive) in the experiment with 786-0; 19.9 µM (inactive) in the experiment on A498; 18.5 µM (inactive) in the experiment with COLO 205; 24.9 µM (inactive) with HOP-62; 33.2 µM (inactive) in the experiment with LOX IMVI; 19.5 µM (inactive) in the experiment with NCI-H226. Further, the GI50 in the experiment with NCI-H460 is 37.2 µM (inactive); in the experiment with OVCAR-3 it was 12.4 µM (inactive); with OVCAR-8, 29.1 µM (inactive); in the experiment on RPMI-8226 it was 25.7 µM (inactive); in the experiment on RXF 393 it was 19.2 µM (inactive); in the experiment on SK-OV-3, 40 µM (inactive). For the same compound, the GI50 was 25.1 µM (inactive) in the experiment with SNB-19; 28 µM (inactive) in the experiment on SNB-75; 27.2 µM (inactive) in the experiment with SW-620; 19.2 µM (inactive) with U-251; 20 µM (inactive) with UACC-62.
